Test results from patent publication US7569605B2, “Methods of treating central nervous system disorders with a low dose combination of escitalopram and bupropion” (Forest Laboratories Holdings Limited, priority 2005, dated 2009).

System: patients with major depressive disorder (MDD)
Assay: double-blind fixed dose comparison in major depressive disorder: safety and tolerability
Type: in vivo, human
Conditions: for Early Discontinuation: AEs / Early Discontinuation: All Reasons / Early Discontinuation: Insufficient Response / Incidence of TEAEs: Pts with at least 1 TEAE / Selected TEAEs: anorexia / Selected TEAEs: completed suicide* / Selected TEAEs: constipation / Selected TEAEs: decreased appetite / Selected TEAEs: diarrhea / Selected TEAEs: dizziness / Selected TEAEs: dry mouth / Selected TEAEs: early morn awakening / Selected TEAEs: ejaculation delayed / Selected TEAEs: erectile dysfunction / Selected TEAEs: hypersomnia / Selected TEAEs: increased appetite / Selected TEAEs: initial insomnia / Selected TEAEs: insomnia / Selected TEAEs: intentional self-injury / Selected TEAEs: lethargy / Selected TEAEs: libido decreased / Selected TEAEs: libido increased / Selected TEAEs: middle insomnia / Selected TEAEs: nausea / Selected TEAEs: orgasm abnormal / Selected TEAEs: sedation / Selected TEAEs: sleep disorder / Selected TEAEs: somnolence / Selected TEAEs: suicidal ideation / Selected TEAEs: vomiting / Selected TEAEs: weight decreased / Selected TEAEs: weight increased: number of patients (%), 8 weeks double-blind; for patients discontinued treatment early / patients exhibited at least one Treatment Emergent Adverse Event (TEAE): percent of patients, as given in the text
Protocol: The present study evaluates the efficacy, safety, and tolerability of escitalopram/bupropion combination treatment relative to its component monotherapies, and to placebo in patients with major depressive disorder (MDD).
The study consists of a one-week single-blind placebo lead-in period followed by an 8 week double-blind treatment period. Approximately 135 patients are randomized to each of four treatment groups (placebo, escitalopram oxalate 4 mg, bupropion hydrochloride 150 mg, or escitalopram oxalate 4 mg/bupropion hydrochloride 150 mg), for a total of […].
A randomized, double-blind, fixed-dose, multicenter, parallel-group study is conducted in outpatients with MDD. Patients who meet eligibility criteria at Screening (Visit 1) enter a one-week, single-blind, lead-in period of placebo treatment. Patients who complete the lead-in period and continue to meet all entry criteria at Baseline (Visit 2) are randomly assigned to 8 weeks of double-blind treatment with either placebo, escitalopram 4 mg, bupropion XL 150 mg, or escitalopram 4 mg/bupropion XL 150 mg combination. Assignment to a treatment group is according to a computer-generated randomization schedule.
Safety assessments are made of the patients by a physician at every visit and the evaluation documented. At each visit beginning with Visit 2, patients are queried regarding any adverse events (AEs) since the last visit. Study site personnel record all pertinent information in the electronic Case Report Forms (eCRF). Patients are asked to volunteer information concerning AEs with non-leading question such as “How do you feel?” AEs are collected at Visit 2 and all subsequent visits including early termination.
Dosing: For the single-blind lead-in period, patients are supplied with placebo capsules. For the double-blind period, identical appearing capsules are supplied which contain placebo, escitalopram 4 mg, or bupropion extended-release 150 mg. Medication are supplied in blister cards, each containing 20 capsules arranged in two rows of 10 capsules.
All study medication is administered as a single daily dose throughout the study, preferably at the same time each evening starting on the day the medication is dispensed to the patient. Dosing is subsequently be switched to morning, if preferred. At each visit, patients are instructed to take 2 capsules daily, one from Row 1 and one from Row 2. Patients are instructed to return all unused medication at each study visit. Patients who meet eligibility criteria at Visit 1 are dispensed one blister card containing 20 placebo capsules. Patients are instructed to take two capsules daily as a single dose beginning on the day study medication is dispensed. Patients who meet all eligibility criteria at Visit 2 are assigned a randomization number and dispensed the corresponding blister card for Week 1 of treatment as shown in the Figure below:
Patients are assigned the lowest randomization number available at the site. Patients are instructed to take two capsules daily as a single dose beginning on the day study medication is dispensed. In accordance with their assigned treatment group, patients receive placebo, 4 mg escitalopram, 150 mg bupropion, or 4 mg escitalopram and 150 mg bupropion per day.
At Visit 3, patients are dispensed one blister card for Week 2 of treatment. At Visits 4, 5, and 6, patients are dispensed two blister cards for Weeks 3-4, 5-6, and 7-8 of treatment, respectively. Patients are instructed to continue taking two capsules daily as a single dose. In accordance with their assigned treatment group, patients receive placebo, 4 mg escitalopram, 150 bupropion, or 4 mg escitalopram and 150 mg bupropion per day.

| Structure (SMILES) | Early Discontinuation: AEs | Early Discontinuation: All Reasons | Early Discontinuation: Insufficient Response | Incidence of TEAEs: Pts with at least 1 TEAE | Selected TEAEs: anorexia | Selected TEAEs: completed suicide* [%] | Selected TEAEs: constipation | Selected TEAEs: decreased appetite | Selected TEAEs: diarrhea | Selected TEAEs: dizziness | Selected TEAEs: dry mouth | Selected TEAEs: early morn awakening | Selected TEAEs: ejaculation delayed | Selected TEAEs: erectile dysfunction [%] | Selected TEAEs: hypersomnia [%] | Selected TEAEs: increased appetite | Selected TEAEs: initial insomnia | Selected TEAEs: insomnia | Selected TEAEs: intentional self-injury [%] | Selected TEAEs: lethargy | other results |
| --- | --- | --- | --- | --- | --- | --- | --- | --- | --- | --- | --- | --- | --- | --- | --- | --- | --- | --- | --- | --- | --- |
| CC(NC(C)(C)C)C(=O)c1cccc(Cl)c1 (racemic) [bupropion, (±)-1-(3-chlorophenyl)-2-[(1,1-dimethylethyl)amino]-1-propanone] | 10 (7.5%) | 29 (21.6%) | 4 (3.0%) | 101 (75.4%) | 0% | 0 | 6 (4.5%) | 5 (3.7%) | 5 (3.7%) | 2 (1.5%) | 13 (9.7%) | 2 (1.5%) | 0% | 0 | 0 | 3 (2.2%) | 1 (0.7%) | 14 (10.4%) | 0 | 2 (1.5%) | Selected TEAEs: libido decreased: 1 (0.7%); Selected TEAEs: libido increased: 0%; Selected TEAEs: middle insomnia: 3 (2.2%); Selected TEAEs: nausea: 5 (3.7%); Selected TEAEs: orgasm abnormal: 0%; Selected TEAEs: sedation: 1 (0.7%); Selected TEAEs: sleep disorder: 2 (1.5%); Selected TEAEs: somnolence: 2 (1.5%); Selected TEAEs: suicidal ideation: 1 (0.7%); Selected TEAEs: vomiting: 0%; Selected TEAEs: weight decreased: 4 (3.0%); Selected TEAEs: weight increased: 0%; patients discontinued treatment early: 21.6%; patients exhibited at least one Treatment Emergent Adverse Event (TEAE): 75.4% |
| CN(C)CCC[C@@]1(c2ccc(F)cc2)OCc2cc(C#N)ccc21 [escitalopram, 1-[3-(dimethyl-amino)propyl]-1-(p-fluorophenyl)-5-phthalancarbonitrile] | 5 (3.8%) | 24 (18.3%) | 0% | 86 (65.6%) | 1 (0.8%) | 0 | 3 (2.3%) | 2 (1.5%) | 6 (4.6%) | 3 (2.3%) | 11 (8.4%) | 1 (0.8%) | 2 (3.9%) | 0 | 0 | 1 (0.8%) | 0% | 5 (3.8%) | 0 | 0% | Selected TEAEs: libido decreased: 3 (2.3%); Selected TEAEs: libido increased: 0%; Selected TEAEs: middle insomnia: 0%; Selected TEAEs: nausea: 10 (7.6%); Selected TEAEs: orgasm abnormal: 0%; Selected TEAEs: sedation: 1 (0.8%); Selected TEAEs: sleep disorder: 0%; Selected TEAEs: somnolence: 4 (3.1%); Selected TEAEs: suicidal ideation: 0%; Selected TEAEs: vomiting: 2 (1.5%); Selected TEAEs: weight decreased: 0%; Selected TEAEs: weight increased: 3 (2.3%); patients discontinued treatment early: 18.3%; patients exhibited at least one Treatment Emergent Adverse Event (TEAE): 65.6% |
